Laboratory results: US20230265116A1, “DEGRADATION OF (EGFR) BY CONJUGATION OF EGFR INHIBITORS WITH E3 LIGASE LIGAND AND METHODS OF USE” (BEIGENE, LTD., priority 2020, published 2023)
Like-named read-outs stand apart in the source and are kept apart here.

Assays:
[1] = biological target: T1, EGFR L858R/T790M/C797S (BaF3-LTC cells) (Homo sapiens, UniProt P00533, C797S/L858R/T790M); assay: EGFR degradation HTRF assay, BaF3-LTC cells; format: cell-based
T1 construct: expressed in transfected cells; host or cells: BaF3
Summary of the method: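 Cells treated 16 h at 37 °C, 5% CO2 in medium with 0.2% DMSO; top final concentration 10 uM, 5-fold dilution, 8 doses. Lysates read by HTRF (665/620 nm); degradation % versus DMSO high control, DC50 from four-parameter fit, Dmax as maximal degradation.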

[2] = tested on: EGFR Del19/T790M/C797S (H1975-clone #28); assay: EGFR degradation HTRF assay, H1975-clone #28 DTC cells; format: cell-based
Summary of the method: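 Cells were dosed on day 2 with an 8-point, 5-fold dilution series starting at 10 uM final and incubated 16h at 37° C. After lysis for 1 hour, HTRF antibodies were added overnight at room temperature and the plate was read at 665/620 nm. Degradation was normalised to DMSO wells and fitted for DC50 and Dmax.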

[3] = BaF3-LTC cells; EGFR degradation, IC50 (DC50) from curve fit; read-out: DC50(nM) BaF3-LTC
[4] = BaF3-LTC cells; maximum percentage of inhibition (degradation); read-out: Dmax (%) BaF3-LTC
[5] = H1975 # 28 DTC cells; EGFR degradation, IC50 (DC50) from curve fit; read-out: DC50(nM) H1975 # 28 DTC
[6] = H1975 # 28 DTC cells; maximum percentage of inhibition (degradation)
[7] = read-out: DC50(nM) BaF3-LTC; BaF3-LTC cells; EGFR degradation, IC50 (DC50) from curve fit
[8] = read-out: Dmax (%) BaF3-LTC, BaF3-LTC cells; maximum percentage of inhibition (degradation)
[9] = read-out: DC50(nM) H1975 # 28 DTC; H1975 # 28 DTC cells; EGFR degradation, IC50 (DC50) from curve fit

T1 sequence (P00533 25-1210 T790M/C797S/L858R): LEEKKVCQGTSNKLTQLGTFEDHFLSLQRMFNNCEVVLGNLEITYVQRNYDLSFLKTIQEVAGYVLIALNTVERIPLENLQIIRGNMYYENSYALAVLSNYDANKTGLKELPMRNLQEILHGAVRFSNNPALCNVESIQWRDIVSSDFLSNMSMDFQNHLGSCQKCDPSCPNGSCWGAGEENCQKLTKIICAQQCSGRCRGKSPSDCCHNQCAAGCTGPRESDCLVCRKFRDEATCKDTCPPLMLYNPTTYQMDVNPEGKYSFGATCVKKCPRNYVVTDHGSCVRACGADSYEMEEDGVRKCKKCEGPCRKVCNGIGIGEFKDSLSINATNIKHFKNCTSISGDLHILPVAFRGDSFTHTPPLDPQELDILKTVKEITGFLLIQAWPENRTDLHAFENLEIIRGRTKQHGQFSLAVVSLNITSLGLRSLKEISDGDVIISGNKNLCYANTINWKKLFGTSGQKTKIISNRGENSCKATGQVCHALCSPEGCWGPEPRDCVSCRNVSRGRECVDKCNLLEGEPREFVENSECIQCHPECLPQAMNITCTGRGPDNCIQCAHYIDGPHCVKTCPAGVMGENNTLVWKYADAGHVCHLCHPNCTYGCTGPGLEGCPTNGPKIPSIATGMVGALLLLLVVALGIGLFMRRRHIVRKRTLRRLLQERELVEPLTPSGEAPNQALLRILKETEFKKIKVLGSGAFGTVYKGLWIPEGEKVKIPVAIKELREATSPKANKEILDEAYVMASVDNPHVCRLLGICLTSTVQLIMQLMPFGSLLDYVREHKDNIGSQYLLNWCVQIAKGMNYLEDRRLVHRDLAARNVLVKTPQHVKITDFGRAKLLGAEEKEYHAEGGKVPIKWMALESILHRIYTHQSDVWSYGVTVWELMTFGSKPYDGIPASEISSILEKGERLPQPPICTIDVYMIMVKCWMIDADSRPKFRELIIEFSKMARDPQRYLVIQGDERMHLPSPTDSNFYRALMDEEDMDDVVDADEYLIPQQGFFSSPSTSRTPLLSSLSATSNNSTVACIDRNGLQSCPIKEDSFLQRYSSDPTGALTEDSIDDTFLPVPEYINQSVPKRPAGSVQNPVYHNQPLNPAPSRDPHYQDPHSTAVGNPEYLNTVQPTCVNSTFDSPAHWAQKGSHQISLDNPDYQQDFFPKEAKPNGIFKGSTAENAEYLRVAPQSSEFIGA

Compound | DC50 [1, 3] [nM] | Dmax [1, 4] [%] | DC50 [2, 5] [nM] | Dmax (%) H1975 # 28 DTC [2, 6] [%] | DC50 [1, 7] [nM] | Dmax [1, 8] [%] | DC50 [2, 9] [nM]
CCc1ccc2c(P(C)(C)=O)c(Nc3nc(Nc4cc(CC)c(N5CCC(N6CCN(C(=O)C78CCC(Nc9cc(F)c([C@H]%10CCC(=O)NC%10=O)c(F)c9)(CC7)C8)CC6)CC5)cc4OC)ncc3Br)ccc2n1 [Example 663, (R)-3-(4-((4-(4-(1-(4-((5-bromo-4-((5-(dimethylphosphoryl)-2-ethylquinolin-6-yl)amino)pyrimidin-2-yl)amino)-2-ethyl-5-methoxyphenyl)piperidin-4-yl)piperazine-1-carbonyl)bicyclo[2.2.1]heptan-1-yl)amino)-2,6-difluorophenyl)piperidine-2,6-dione] | 3.98 | 95.8 | 1.81 | 74.11 |  |  | 
CCOc1cc(N2CCC(N3CCN(CCc4c(F)ccc5c4n(C)c(=O)n5C4CCC(=O)NC4=O)CC3)CC2)c(CC)cc1Nc1ncc(Br)c(Nc2ccc3nc(CC)ccc3c2P(C)(C)=O)n1 (stereo not shown) [Example 648, 3-(4-(2-(4-(1-(4-((5-bromo-4-((5-(dimethylphosphoryl)-2-ethylquinolin-6-yl)amino)pyrimidin-2-yl)amino)-5-ethoxy-2-ethylphenyl)piperidin-4-yl)piperazin-1-yl)ethyl)-5-fluoro-3-methyl-2-oxo-2,3-dihydro-1H-benzo[d]imidazol-1-yl)piperidine-2,6-dione] | 15.3 | 95.8 | 4.01 | 81.9 |  |  | 
CCc1ccc2c(P(C)(C)=O)c(Nc3nc(Nc4cc(CC)c(N5CCC(N6CCN(CCc7cccc8c7n(C)c(=O)n8C7CCC(=O)NC7=O)CC6)CC5)cc4OC)ncc3Br)ccc2n1 (stereo not shown) [Example 451, 3-(4-(2-(4-(1-(4-((5-bromo-4-((5-(dimethylphosphoryl)-2-ethylquinolin-6-yl)amino)pyrimidin-2-yl)amino)-2-ethyl-5-methoxyphenyl)piperidin-4-yl)piperazin-1-yl)ethyl)-3-methyl-2-oxo-2,3-dihydro-1H-benzo[d]imidazol-1-yl)piperidine-2,6-dione] | 3.64 | 95.4 | 0.612 | 70.68 |  |  | 
CCc1cc(Nc2ncc(Br)c(Nc3ccc4c(=O)n(C5CC5)ncc4c3P(C)(C)=O)n2)c(OC)cc1N1CCC(N2CCN(CCc3ccc4c(c3)oc(=O)n4C3CCC(=O)NC3=O)CC2)CC1 (stereo not shown) [Example 522, 3-(6-(2-(4-(1-(4-((5-bromo-4-((2-cyclopropyl-5-(dimethylphosphoryl)-1-oxo-1,2-dihydrophthalazin-6-yl)amino)pyrimidin-2-yl)amino)-2-ethyl-5-methoxyphenyl)piperidin-4-yl)piperazin-1-yl)ethyl)-2-oxobenzo[d]oxazol-3(2H)-yl)piperidine-2,6-dione] | 1.43 | 95.3 | 0.611 | 75.25 |  |  | 
CCc1cnc2c(P(C)(C)=O)c(Nc3nc(Nc4cc(CC)c(N5CCC(N6CCN(CCc7ccc8c(c7)oc(=O)n8C7CCC(=O)NC7=O)CC6)CC5)cc4OC)ncc3Br)ccc2n1 (stereo not shown) [Example 548, 3-(6-(2-(4-(1-(4-((5-bromo-4-((5-(dimethylphosphoryl)-2-ethylquinoxalin-6-yl)amino)pyrimidin-2-yl)amino)-2-ethyl-5-methoxyphenyl)piperidin-4-yl)piperazin-1-yl)ethyl)-2-oxobenzo[d]oxazol-3(2H)-yl)piperidine-2,6-dione] |  |  |  | 74.38 | 3.63 | 91.8 | 0.696
CCc1cc(Nc2ncc(Br)c(Nc3ccc4c(c3P(C)(C)=O)OCCO4)n2)c(OC)cc1N1CCC(N2CCN(C(=O)[C@@H]3CCN(c4cc(F)c([C@H]5CCC(=O)NC5=O)c(F)c4)C3)CC2)CC1 [Example 686, (R)-3-(4-((R)-3-(4-(1-(4-((5-bromo-4-((5-(dimethylphosphoryl)-2,3-dihydrobenzo[b][1,4]dioxin-6-yl)amino)pyrimidin-2-yl)amino)-2-ethyl-5-methoxyphenyl)piperidin-4-yl)piperazine-1-carbonyl)pyrrolidin-1-yl)-2,6-difluorophenyl)piperidine-2,6-dione] | 4.89 | 96.6 | 1.76 | 88.73 |  |  | 
CCc1cc(Nc2ncc(Br)c(Nc3ccc4nc(C)ccc4c3P(C)(C)=O)n2)c(OC2CC2)cc1N1CCC(N2CCN(CCc3ccc4c(c3)oc(=O)n4C3CCC(=O)NC3=O)CC2)CC1 (stereo not shown) [Example 557, 3-(6-(2-(4-(1-(4-((5-bromo-4-((5-(dimethylphosphoryl)-2-methylquinolin-6-yl)amino)pyrimidin-2-yl)amino)-5-cyclopropoxy-2-ethylphenyl)piperidin-4-yl)piperazin-1-yl)ethyl)-2-oxobenzo[d]oxazol-3(2H)-yl)piperidine-2,6-dione] | 6.8 | 89.1 | 0.773 | 92.3 |  |  | 
CCOc1cc(N2CCC(N3CCN(CCc4c(F)ccc5c4C(C)(C)C(=O)N5C4CCC(=O)NC4=O)CC3)CC2)c(CC)cc1Nc1ncc(Br)c(Nc2ccc3nc(CC)ccc3c2P(C)(C)=O)n1 (stereo not shown) [Example 647, 3-(4-(2-(4-(1-(4-((5-bromo-4-((5-(dimethylphosphoryl)-2-ethylquinolin-6-yl)amino)pyrimidin-2-yl)amino)-5-ethoxy-2-ethylphenyl)piperidin-4-yl)piperazin-1-yl)ethyl)-5-fluoro-3,3-dimethyl-2-oxoindolin-1-yl)piperidine-2,6-dione] | 13.2 | 93.2 | 2 | 66.66 |  |  | 
CCc1cc(Nc2ncc(Br)c(Nc3cc(F)c4nc(C)ccc4c3P(C)(C)=O)n2)c(OC)cc1N1CCC(N2CCN(CCc3ccc4c(c3)oc(=O)n4C3CCC(=O)NC3=O)CC2)CC1 (stereo not shown) [Example 536, 3-(6-(2-(4-(1-(4-((5-bromo-4-((5-(dimethylphosphoryl)-8-fluoro-2-methylquinolin-6-yl)amino)pyrimidin-2-yl)amino)-2-ethyl-5-methoxyphenyl)piperidin-4-yl)piperazin-1-yl)ethyl)-2-oxobenzo[d]oxazol-3(2H)-yl)piperidine-2,6-dione] | 0.867 | 96.3 | 0.582 | 73.22 |  |  | 
CCc1ccc2c(P(C)(C)=O)c(Nc3nc(Nc4cc(CC)c(N5CCC(N6CCN(C(=O)C7CCN(c8cccc9c8oc(=O)n9C8CCC(=O)NC8=O)CC7)CC6)CC5)cc4OC)ncc3Br)ccc2n1 (stereo not shown) [Example 450, 3-(7-(4-(4-(1-(4-((5-bromo-4-((5-(dimethylphosphoryl)-2-ethylquinolin-6-yl)amino)pyrimidin-2-yl)amino)-2-ethyl-5-methoxyphenyl)piperidin-4-yl)piperazine-1-carbonyl)piperidin-1-yl)-2-oxobenzo[d]oxazol-3(2H)-yl)piperidine-2,6-dione] |  |  |  | 77 | 2.68 | 87.7 | 0.616
CCc1cnc2c(P(C)(C)=O)c(Nc3nc(Nc4cc(CC)c(N5CCC(N6CCN(C(=O)[C@@H]7CCN(c8cc(F)c([C@H]9CCC(=O)NC9=O)c(F)c8)C7)CC6)CC5)cc4OC)ncc3Br)ccc2n1 [Example 538, (R)-3-(4-((R)-3-(4-(1-(4-((5-bromo-4-((5-(dimethylphosphoryl)-2-ethylquinoxalin-6-yl)amino)pyrimidin-2-yl)amino)-2-ethyl-5-methoxyphenyl)piperidin-4-yl)piperazine-1-carbonyl)pyrrolidin-1-yl)-2,6-difluorophenyl)piperidine-2,6-dione] | 16.2 | 89.6 | 2.39 | 80.57 |  |  | 
CCOc1cc(N2CCC(N3CCN(CCc4ccc(F)c5c4oc(=O)n5C4CCC(=O)NC4=O)CC3)CC2)c(CC)cc1Nc1ncc(Br)c(Nc2cc(F)c3nc(CC)ccc3c2P(C)(C)=O)n1 (stereo not shown) [Example 592, 3-(7-(2-(4-(1-(4-((5-bromo-4-((5-(dimethylphosphoryl)-2-ethyl-8-fluoroquinolin-6-yl)amino)pyrimidin-2-yl)amino)-5-ethoxy-2-ethylphenyl)piperidin-4-yl)piperazin-1-yl)ethyl)-4-fluoro-2-oxobenzo[d]oxazol-3(2H)-yl)piperidine-2,6-dione] | 12.5 | 83.7 | 1.18 | 82.2 |  |  | 
CCOc1cc(N2CCC(N3CCN(CCc4cc(F)c(F)c5c4n(CC)c(=O)n5C4CCC(=O)NC4=O)CC3)CC2)c(CC)cc1Nc1ncc(Br)c(Nc2ccc3c(=O)n(CC)ncc3c2P(C)(C)=O)n1 (stereo not shown) [Example 743, 3-(4-(2-(4-(1-(4-((5-bromo-4-((5-(dimethylphosphoryl)-2-ethyl-1-oxo-1,2-dihydrophthalazin-6-yl)amino)pyrimidin-2-yl)amino)-5-ethoxy-2-ethylphenyl)piperidin-4-yl)piperazin-1-yl)ethyl)-3-ethyl-6,7-difluoro-2-oxo-2,3-dihydro-1H-benzo[d]imidazol-1-yl)piperidine-2,6-dione] | 55.9 | 79.7 | 2.42 | 75.96 |  |  | 
